Reference: patent US10689377B2 (Mirati Therapeutics, Inc., priority 2017, dated 2020)

Tests used:
[1] = In vitro stability in human whole blood; format: in vitro ADME; conditions: male, whole blood diluted to 50% with PBS, pH 7.4, human whole blood diluted to 50% with PBS, 5 μM, 37° C., 240-minute incubation, read-out: Compound Half-life
Excerpt: Materials: The following reagents were used as received: acetonitrile (HPLC grade, Burdick & Jackson, Madison, Wis.), phosphate buffered saline (PBS), pH 7.4 (Sigma-Aldrich, Co., St. Louis, Mo.), water (HPLC grade, JT Baker, Phillipsburg, N.J.), DMSO (EM Science, Merck KGaA, Darmstadt, Germany) and isopropanol (IPA, reagent grade, EMD Chemicals, Gibbstown, N.J.). Propantheline and esmolol (Sigma-Aldrich) were used as the positive control compounds in the assay. Diazepam (Sigma-Aldrich) was used as an internal standard for quantitation. Human whole blood was obtained from BioIVT (Westbury, N.Y.) […]. All other reagents and solvents were of the highest analytical grade supplied by Sigma (St. Louis, Mo.) and were used as received.
Blood Incubations: The in vitro stability of representative KRas G12C inhibitor compounds of the present invention in the presence whole blood was conducted in the following manner. Esmolol or propantheline, which are known to undergo ester hydrolysis by esterases in blood and plasma, were used as the positive controls in the assays. A 10 mM stock solution of propantheline, esmolol, or a compound of the present invention in DMSO was diluted to 500 μM with DMSO. Aliquots of whole blood (600 μL), in triplicate, were placed in the appropriate wells of a polypropylene 96-deep well plate (Axygen Scientific, Union City, Calif.). The blood was diluted to 50% using PBS, pH 7.4 (600 μL). The diluted blood was pre-incubated for 15 minutes at 37° C. Each well was dosed with 12 μL of the 500 μM DMSO stock simultaneously for a final test concentration of 5 μM. The plates were mixed at 600 rpm for 10 seconds on a plate shaker (IKA MTS 2/4 Digital Microtiter Shaker, VWR). Aliquots of 100 μL from each well of whole blood were transferred to three separate 96-deep well plates labeled 0, 60, or 240 minutes. At the end of each designated time point, the red blood cells were lysed with 100 μL of water, mixed at 600 rpm for one minute, and stopped with 800 μL of acetonitrile containing IS (0.625 μM diazepam). The plates were mixed on the plate shaker at 600 rpm for one minute and spun in a centrifuge at 2095×g for 7 minutes at room temperature using an Allegra benchtop centrifuge (Beckman Coulter, Fullerton, Calif.). Supernatant (100 μL) was transferred to a shallow 96-well plate (Costar) using a liquid sample handling system (Apricot, Perkin-Elmer, Boston, Mass.). The addition of 100 μL of water was added to each sample of supernatant for a final volume of 200 μL. The plates were sealed and the contents of each well were analyzed by LC-MS/MS.
Analytical quantitation: The LC-MS/MS system was comprised of an HTS-PAL autosampler (Leap Technologies, Carrboro, N.C.), an HP1200 HPLC (Agilent, Palo Alto, Calif.), and an API4000 triple quadrupole mass spectrometer (PE Sciex, a division of Applied Biosystems, Foster City, Calif.). […] The total run time, including re-equilibration, for a single injection was 2 minutes. Mass spectrometric detection of the analytes was accomplished using the ESI ionization mode. Ion current was optimized during infusion of a stock solution of propantheline, esmolol, or the representative test compound. Analyte responses, including the IS were measured by multiple reaction monitoring (MRM) of transitions unique to each compound.
Calculations: Data were acquired and peak areas were calculated for test compounds and the internal standard using Analyst 1.6.2 software (Sciex). The mean peak area ratios were calculated by averaging the peak area ratios (n=3) of each test compound and the IS for each sample.
Peak area tables were exported to BioAssay Enterprise (CambridgeSoft, Cambridge, Mass.), where the average analyte-to-internal standard peak area ratios were used to calculate percent remaining (% REM) and half-life (t1/2). Percent remaining (f) was calculated by determining the ratio of the peak area ratio at each time point to the peak area ratio of the time-zero samples. […]

KRas G12C = KRas G12C (Homo sapiens, UniProt P01116, G12C); assay: Cellular inhibition of KRas G12C measured by Phospho-ERK in NCI-H358 cells; format: cell-based; conditions: pERK(Thr202/Tyr204) normalized with GAPDH, NCI-H358 cells, 3 hours; read-out: IC50
Procedure, shortened: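 NCI-H358 cells were allowed to attach for 8-12 hours, then exposed to compounds for 3 hours at 0.5% DMSO final. After formaldehyde fixation and methanol permeabilization, phospho-ERK (Thr202/Tyr204) was detected by in-cell immunofluorescence and normalized to GAPDH; IC50 came from a 4-parameter fit of percent-of-DMSO values.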

Chain of KRas G12C (P01116 1-188 isoform P01116-2 G12C): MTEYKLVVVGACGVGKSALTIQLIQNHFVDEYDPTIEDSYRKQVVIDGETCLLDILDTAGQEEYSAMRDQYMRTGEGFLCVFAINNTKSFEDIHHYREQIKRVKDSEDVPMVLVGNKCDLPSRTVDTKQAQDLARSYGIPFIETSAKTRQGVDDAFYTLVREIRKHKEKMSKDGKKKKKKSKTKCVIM

SMILES | half-life at 5 µM [1] | IC50 (KRas G12C)
C=C(OC)C(=O)N1CCN(c2nc(OC[C@@H]3CCCN3C)nc3c2CCN(c2cccc4cccc(Cl)c24)C3)C[C@@H]1CC#N [Example 514, 2-[(2S)-4-[7-(8-chloro-1-naphthyl)-2-[[(2S)-1-methylpyrrolidin-2-yl]methoxy]-6,8-dihydro-5H-pyrido[3,4-d]pyrimidin-4-yl]-1-(2-methoxyprop-2-enoyl)piperazin-2-yl] acetonitrile] | > 33.3 h | > 1000 nM
Cc1cccc2cccc(N3CCc4c(nc(OC[C@@H]5CCCN5C)nc4N4CCN(C(=O)/C=C/Cn5cccn5)[C@@H](CC#N)C4)C3)c12 [Example 509] | > 33.3 h | 0.1 to 1000 nM
C=C(F)C(=O)N1CCN(c2nc(OC[C@H]3CCCN3C)nc3c2CCN(c2cccc4cccc(C)c24)C3)C[C@@H]1CC#N [Example 516, 2-((S)-1-(2-fluoroacryloyl)-4-(7-(8-methylnaphthalen-1-yl)-2-(((R)-1-methylpyrrolidin-2-yl)methoxy)-5,6,7,8-tetrahydropyrido[3,4-d]pyrimidin-4-yl)piperazin-2-yl)acetonitrile] | > 33.3 h | 0.1 to 1000 nM
CN(C)C/C=C/C(=O)N1CCN(c2nc(OC[C@@H]3CCCN3C)nc3c2CCN(c2cccc4ccccc24)C3)C[C@@H]1CC#N [Example 235, 2-((S)-1-((E)-4-(dimethylamino)but-2-enoyl)-4-(2-(((S)-1-methylpyrrolidin-2-yl)methoxy)-7-(naphthalen-1-yl)-5,6,7,8-tetrahydropyrido[3,4-d]pyrimidin-4-yl)piperazin-2-yl)acetonitrile] | > 33.3 h | 0.1 to 1000 nM
Cc1cccc2cccc(N3CCc4c(nc(OC[C@@H]5CCCN5C)nc4N4CCN(C(=O)/C=C/CF)[C@@H](CC#N)C4)C3)c12 [Example 506, 2-((S)-1-((E)-4-fluorobut-2-enoyl)-4-(7-(8-methylnaphthalen-1-yl)-2-(((S)-1-methylpyrrolidin-2-yl)methoxy)-5,6,7,8-tetrahydropyrido[3,4-d]pyrimidin-4-yl)piperazin-2-yl)acetonitrile] | 16.7 to 33.3 h | 0.1 to 1000 nM
CN(C/C=C/C(=O)N1CCN(c2nc(OC[C@@H]3CCCN3C)nc3c2CCN(c2cccc4cccc(Cl)c24)C3)C[C@@H]1CC#N)CC(F)(F)F [Example 482, 2-[(2S)-4-[7-(8-chloro-1-naphthyl)-2-[[(2S)-1-methylpyrrolidin-2-yl]methoxy]-6,8-dihydro-5H-pyrido[3,4-d]pyrimidin-4-yl]-1-[(E)-4-[methyl(2,2,2-trifluoroethyl)amino]but-2-enoyl]piperazin-2-yl]acetonitrile] | > 33.3 h | 0.1 to 1000 nM
Cc1cccc2cccc(N3CCc4c(nc(OC[C@H]5CCCN5C)nc4N4CCN(C(=O)/C=C/CF)[C@@H](CC#N)C4)C3)c12 [Example 579, 2-[(2S)-1-[(E)-4-Fluorobut-2-enoyl]-4-[7-(8-methyl-1-naphthyl)-2-[[(2R)-1-methylpyrrolidin-2-yl]methoxy]-6,8-dihydro-5H-pyrido[3,4-d]pyrimidin-4-yl]piperazin-2-yl]acetonitrile] | 16.7 to 33.3 h | 0.1 to 1000 nM
Cc1cccc2cccc(N3CCc4c(nc(OC[C@H]5CCCN5C)nc4N4CCN(C(=O)/C=C/CO)[C@@H](CC#N)C4)C3)c12 [Example 517, 2-((S)-1-((E)-4-hydroxybut-2-enoyl)-4-(7-(8-methylnaphthalen-1-yl)-2-(((R)-1-methylpyrrolidin-2-yl)methoxy)-5,6,7,8-tetrahydropyrido[3,4-d]pyrimidin-4-yl)piperazin-2-yl)acetonitrile] | 16.7 to 33.3 h | 0.1 to 1000 nM

The remaining lines, values ahead:

half-life at 5 µM [1] | IC50 (KRas G12C) | SMILES
16.7 to 33.3 h | 0.1 to 1000 nM | CN1CCC[C@H]1COc1nc2c(c(N3CCN(C(=O)/C=C/CN4CCOCC4)[C@@H](CC#N)C3)n1)CCN(c1cccc3cccc(Cl)c13)C2 [Example 367, 2-[(2S)-4-[7-(8-chloro-1-naphthyl)-2-[[(2S)-1-methylpyrrolidin-2-yl]methoxy]-6,8-dihydro-5H-pyrido[3,4-d]pyrimidin-4-yl]-1-[(E)-4-morpholinobut-2-enoyl]piperazin-2-yl]acetonitrile]
> 33.3 h | 0.1 to 1000 nM | C/C=C/C(=O)N1CCN(c2nc(OC[C@@H]3CCCN3C)nc3c2CCN(c2cccc4cccc(C)c24)C3)C[C@@H]1CC#N [Example 372]
≤ 3.33 h | 0.1 to 1000 nM | CN1CCC[C@H]1COc1nc2c(c(N3CCN(C(=O)/C=C/C(F)F)[C@@H](CC#N)C3)n1)CCN(c1cccc3cccc(Cl)c13)C2 [Example 484, 2-[(2S)-4-[7-(8-chloro-1-naphthyl)-2-[[(2S)-1-methylpyrrolidin-2-yl]methoxy]-6,8-dihydro-5H-pyrido[3,4-d]pyrimidin-4-yl]-1-[(E)-4,4-difluorobut-2-enoyl]piperazin-2-yl]acetonitrile]
> 33.3 h | 0.1 to 1000 nM | COC/C=C/C(=O)N1CCN(c2nc(OC[C@@H]3CCCN3C)nc3c2CCN(c2cccc4cccc(C)c24)C3)C[C@@H]1CC#N [Example 511, 2-((S)-1-((E)-4-methoxybut-2-enoyl)-4-(7-(8-methylnaphthalen-1-yl)-2-(((S)-1-methylpyrrolidin-2-yl)methoxy)-5,6,7,8-tetrahydropyrido[3,4-d]pyrimidin-4-yl)piperazin-2-yl)acetonitrile]
> 33.3 h | 0.1 to 1000 nM | COC/C=C/C(=O)N1CCN(c2nc(OC[C@@H]3CCCN3C)nc3c2CCN(c2cccc4cccc(Cl)c24)C3)C[C@@H]1CC#N [Example 524, 2-((S)-4-(7-(8-chloronaphthalen-1-yl)-2-(((S)-1-methylpyrrolidin-2-yl)methoxy)-5,6,7,8-tetrahydropyrido[3,4-d]pyrimidin-4-yl)-1-((E)-4-methoxybut-2-enoyl)piperazin-2-yl)acetonitrile]
≤ 3.33 h | 0.1 to 1000 nM | Cc1cccc2cccc(N3CCc4c(nc(OC[C@@H]5CCCN5C)nc4N4CCN(C(=O)/C=C/C(F)(F)F)[C@@H](CC#N)C4)C3)c12 [Example 491, 2-((S)-4-(7-(8-methylnaphthalen-1-yl)-2-(((S)-1-methylpyrrolidin-2-yl)methoxy)-5,6,7,8-tetrahydropyrido[3,4-d]pyrimidin-4-yl)-1-((E)-4,4,4-trifluorobut-2-enoyl)piperazin-2-yl)acetonitrile]
> 33.3 h | 0.1 to 1000 nM | C=C(COC)C(=O)N1CCN(c2nc(OC[C@@H]3CCCN3C)nc3c2CCN(c2cccc4cccc(Cl)c24)C3)C[C@@H]1CC#N [Example 485, 2-[(2S)-4-[7-(8-chloro-1-naphthyl)-2-[[(2S)-1-methylpyrrolidin-2-yl]methoxy]-6,8-dihydro-5H-pyrido[3,4-d]pyrimidin-4-yl]-1-[2-(methoxymethyl)prop-2-enoyl]piperazin-2-yl]acetonitrile]
≤ 3.33 h | 0.1 to 1000 nM | Cc1cccc2cccc(N3CCc4c(nc(OC[C@@H]5CCCN5C)nc4N4CCN(C(=O)/C=C/C#N)[C@@H](CC#N)C4)C3)c12 [Example 501, (E)-4-((S)-2-(cyanomethyl)-4-(7-(8-methylnaphthalen-1-yl)-2-(((S)-1-methylpyrrolidin-2-yl)methoxy)-5,6,7,8-tetrahydropyrido[3,4-d]pyrimidin-4-yl)piperazin-1-yl)-4-oxobut-2-enenitrile]
